RP-LC retention time data for 80 molecules are collected here from the METLIN SMRT retention time set (Domingo-Almenara et al. 2019).

The series is described as follows: gradient 5% acetonitrile 3 min, to 50% in 2 min, to 85% in 15 min, held 3 min, 100 µL/min. Conditions: column: Zorbax Extend-C18 2.1 x 50 mm; eluents: water / acetonitrile, 0.1% formic acid. Put shortly: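 In both positive and negative ionization mode, a quadrupole time-of-flight mass spectrometer coupled to HPLC analyzed pure standards run in mixtures of ~100 molecules. The Zorbax Extend-C18 column (2.1 × 50 mm, 1.8 μm) was operated at 100 μL/min with water and acetonitrile, each containing 0.1% formic acid. The dead volume was 40 μL and the dwell volume 900 μL. Retention time came from adduct peaks that were computationally picked and individually inspected by hand.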
Molecule `CC(C)OCCCNC(=O)CCCn1c2ccccc2c2cnn(C)c(=O)c21` registered an RP-LC retention time of 773 s.

The molecule `Cc1ccccc1Cc1nc(-c2cccc(-c3ccn[nH]3)c2)no1` showed an RP-LC retention time of 985 s.

Molecule `Cc1ccccc1OCc1nc(CCN(C)C(=O)c2ccc(Br)o2)no1` gave an RP-LC retention time of 951 s.

With `O=c1c2scc(-c3cccc(F)c3)c2ncn1Cc1cccnc1`, the RP-LC retention time was determined as 699 s.

As for `Cc1ccc(NC(=O)Cc2csc3nc(-c4ccccc4)cn23)c(Br)c1`, the RP-LC retention time was 872 s.

Molecule `Cc1cc(C)c(NC(=O)C2CCN(c3c(C(=O)N4CCCCC4)cnc4snc(C)c34)CC2)c(C)c1` gave an RP-LC retention time of 927 s.

Regarding `CCn1c(=O)c(N2CCN(C(=O)Nc3cccc(Br)c3)CC2)nc2ccccc21`, the RP-LC retention time stood at 1030 s.

`O=C(Cc1csc(NC(=O)NC2CCCC2)n1)NCCc1c[nH]c2ccccc12`: the RP-LC retention time stood at 754 s.

`Cc1ccc(-c2ncc(NC(=O)C(C)(C)C)cn2)cc1` returned an RP-LC retention time of 968 s.

For the molecule `COCCNC(=O)c1cc2c(n(-c3ccc(F)cc3)c1=O)CCCC2=O`, the RP-LC retention time came to 701 s.

Turning to `Cc1cc(C)c(NC(=O)Cn2nc3c(Oc4ccccc4C)nccn3c2=O)c(C)c1`, the RP-LC retention time came out at 894 s.

Turning to `O=C(CC1CCCC1)N1CCCCC1c1nncn1CC1CC1` (stereo not given), the RP-LC retention time was determined as 781 s.

`Cn1c(=O)c(-c2noc(C(=O)N3CCN(c4ccccn4)CC3)n2)nn(-c2ccccc2)c1=O` returned an RP-LC retention time of 637 s.

With `COC[C@@H]1CN(Cc2cccc(OC)c2OC)C[C@H]1c1ccccn1`, the RP-LC retention time came to 656 s.

On to `Cc1cnc(C(=O)N2CCC(n3c(C)cnc3C3CCC3)C2)cn1` (stereo not given), for which the RP-LC retention time turned out to be 560 s.

`Cc1ccc2[nH]cc(CCN3CC(C(=O)N4CCCCC4)CC3=O)c2c1` (stereo not given) registered an RP-LC retention time of 768 s.

The molecule `Cc1nn(-c2ccc(-c3noc(C4CC4)n3)cc2)cc1C(=O)NC1CCCC1` registered an RP-LC retention time of 940 s.

Consider `CC1CCN(c2nc(=O)n(CC(=O)Nc3ccc4c(c3)OCCO4)c3ccccc23)CC1`, for which the RP-LC retention time stood at 812 s.

`CCOC(=O)N1CCN(c2nc(F)c(F)c(S(=O)(=O)CCN3C(=O)CCC3=O)c2F)CC1` showed an RP-LC retention time of 836 s.

In turn, `CCOC(=O)c1ccc(NC(=O)CN2CC(c3nc(-c4cccc(Cl)c4)no3)C2)cc1` gave an RP-LC retention time of 650 s.

Molecule `O=C(NC1CCN(c2cc(-c3cccs3)[nH]n2)C1)c1ccc(F)cc1` (stereo not given) displayed an RP-LC retention time of 726 s.

In turn, `CCCN1C(=O)COc2ccc(-c3noc(C4CC(=O)N(c5ccc(OC)cc5)C4)n3)cc21` (stereo not given) displayed an RP-LC retention time of 951 s.

Turning to `O=C(NCCc1nc2cccnc2n1Cc1ccccc1)NCc1ccc(F)cc1`, the RP-LC retention time was found to be 738 s.

The molecule `CCOC(=O)C1=C(CN2CCCCCC2)NC(=O)NC1c1ccc(OC(C)C)cc1` (stereo not given) returned an RP-LC retention time of 679 s.

Molecule `CCNC(=O)C(=O)NCC(c1ccc2c(c1)CCCN2C)N1CCCC1` (stereo not given) yielded an RP-LC retention time of 615 s.

The molecule `Cc1ccc(-c2ncccc2CNC(=O)c2ccco2)cc1` returned an RP-LC retention time of 608 s.

Take `Cc1ccc(-c2ncc(C(=O)N(C)C)c(-c3ccncc3)n2)cc1`: the RP-LC retention time was found to be 754 s.

For the molecule `O=C(c1cccnc1)N1CCc2c([nH]c3ccccc23)C1c1ccc(Cl)cc1` (stereo not given), the RP-LC retention time was determined as 998 s.

For `Cc1csc(-c2cc(S(=O)(=O)NC3CC3)c(C)n2C)n1`, the RP-LC retention time worked out at 809 s.

The molecule `CCOc1ccccc1CNC(=O)CN1C(=O)CSc2cccn2-c2ccccc21` registered an RP-LC retention time of 962 s.

Molecule `Cc1nn(-c2cccc(Cl)c2)c2nc(N3CCCC(C(=O)NC4CC4)C3)sc12` (stereo not given) came in with an RP-LC retention time of 1060 s.

`CCN1C(=O)COc2ccc(-c3csc(NC(=O)c4ccc(F)cc4)n3)cc21`: the RP-LC retention time came to 989 s.

Molecule `Cc1cc(C)n2c(C)nnc2c1` had an RP-LC retention time of 570 s.

With `Cc1ncsc1C1N(C2CCN(C(=O)c3ccoc3)CC2)C(=O)C12CCCC2` (stereo not given), the RP-LC retention time came out at 719 s.

`FC(F)(F)c1ccccc1-n1ccnc1` showed an RP-LC retention time of 633 s.

The molecule `COc1cc(OC)cc(-c2noc(-c3cn(C)c4ccc(C)cc4c3=O)n2)c1` had an RP-LC retention time of 894 s.

Take `CCn1cc(-c2nc(CC(=O)Nc3cc(Cl)ccc3OC)cs2)c2cccnc21`: the RP-LC retention time was 1130 s.

`O=C(CCC1CCCN(S(=O)(=O)c2ccccc2)C1)N1CCCCC1` (stereo not given) returned an RP-LC retention time of 902 s.

For `COCCNC(=O)CCc1c(-c2ccc(Cl)cc2)nc2ccccn12`, the RP-LC retention time amounted to 590 s.

Consider `CCc1nc2cc(-c3noc(Cc4ccccc4Cl)n3)ccc2o1`, for which the RP-LC retention time worked out at 1170 s.

`CC(C)(C)n1nc2c(c1NC(=O)c1cccs1)CS(=O)(=O)C2` registered an RP-LC retention time of 690 s.

`Cc1ccccc1NC(=O)C1C(=O)NC2(C)CC1c1ccccc1O2` (stereo not given): the RP-LC retention time was 869 s.

In the case of `COC(=O)c1cnc(N2CCN(Cc3ccccc3)CC2)c2ccccc12`, the RP-LC retention time worked out at 682 s.

Take `Cc1nn(-c2ccc(-c3ccccc3)nn2)c(C)c1S(=O)(=O)NCc1ccccc1`: the RP-LC retention time came to 1030 s.

`Cc1ccccc1CN1CCCN(c2ncccc2-c2nc(C(C)C)no2)CC1` came in with an RP-LC retention time of 725 s.

Regarding `COCc1nnc(C(=O)Nc2cccc(C(=O)NCCc3c[nH]c4ccc(Cl)cc34)c2)s1`, the RP-LC retention time was found to be 896 s.

`CNC(=O)c1c(NC(=O)c2ccc(C)cc2)sc2c1CCC2`: the RP-LC retention time stood at 1070 s.

`CC(C)COc1cc(=O)n2c(c1C(=O)NCCCn1cccn1)CCCCC2` had an RP-LC retention time of 659 s.

Molecule `O=C(c1ccc(C(F)(F)F)s1)N1CCN(c2nnc3ccccn23)CC1` returned an RP-LC retention time of 711 s.

In the case of `COC(=O)C(Cc1ccccc1)NC(=O)Nc1cccn2c(C)nnc12` (stereo not given), the RP-LC retention time turned out to be 685 s.

As for `CC1CN2C=NC(N3CCN(C(=O)c4ccccc4)CC3)=CC2=N1` (stereo not given), the RP-LC retention time turned out to be 580 s.

Turning to `COc1ccc(CN(Cc2ccccc2)Cc2cc(=O)n3cc(C)ccc3n2)cc1OC`, the RP-LC retention time is 616 s.

`CN1C(=O)c2cccnc2Sc2cc(NC(=O)c3ccccc3C(F)(F)F)ccc21` came in with an RP-LC retention time of 799 s.

The molecule `CCn1c(C2CC(=O)N(Cc3ccccc3)C2)nc2ccccc21` (stereo not given) yielded an RP-LC retention time of 650 s.

`CCc1nc(-c2csc(S(=O)(=O)N3CCC(C(=O)Nc4cccc(C)n4)CC3)c2)no1` gave an RP-LC retention time of 838 s.

Molecule `COc1ccccc1CNc1ccc(-c2nc(-c3cccc(F)c3)no2)cn1` came in with an RP-LC retention time of 1230 s.

Regarding `CCN1CCC2(CC1)OC(=O)C(C)=C2C(=O)NCC(C)c1ccccc1` (stereo not given), the RP-LC retention time was 630 s.

Regarding `CNC(=O)[C@@H](NC(=O)[C@H](CC(C)C)[C@H](O)C(=O)NO)C(C)(C)C`, the RP-LC retention time is 620 s.

For `Cc1ccc(CNC(=O)C2(C)CCCN(C(=O)Nc3cccc(Cl)c3C)C2)cc1` (stereo not given), the RP-LC retention time is 1060 s.

As for `COc1ccc(-c2ccc(=O)n(Cc3nc(-c4ccc(F)cc4)no3)n2)cc1OC`, the RP-LC retention time stood at 892 s.

`O=C(Nc1ccc2ncnc(N3CCCC3)c2c1)C1CCC1` yielded an RP-LC retention time of 628 s.

For `Cc1csc(-c2cc(S(=O)(=O)NC(C)(C)C)cn2CC(=O)N2CCCC2)n1`, the RP-LC retention time was determined as 1160 s.

On to `Cc1cc(NC(=O)C(=O)NCCN2CCN(c3ccccc3F)CC2)no1`, for which the RP-LC retention time was found to be 580 s.

`CCCNc1cc(N2CCC(CCC(=O)NCc3ccc(OC)cc3)CC2)ncn1` came in with an RP-LC retention time of 657 s.

The molecule `COc1ccc(-c2nnc(-c3ccccc3)o2)cc1S(=O)(=O)NC1CCCC1` displayed an RP-LC retention time of 966 s.

Consider `Cc1cccc(N2CCN(c3ccc4cc(S(=O)(=O)N5CCOCC5)ccc4n3)CC2)c1C`, for which the RP-LC retention time stood at 1080 s.

For `O=C([C@@H]1C[C@H](Oc2ccccc2)CN1C(=O)CC1CCCC1)N1CCCC1`, the RP-LC retention time was 832 s.

`O=C(c1ccc([N+](=O)[O-])cc1)N(C(=O)N1CCCCC1)c1cccc(Cl)c1` came in with an RP-LC retention time of 953 s.

In the case of `O=c1n(Cc2ccccc2F)nc2c(S(=O)(=O)N3CCc4ccccc4C3)cccn12`, the RP-LC retention time stood at 947 s.

As to `Cc1sc(NC(=O)c2ccc(Cl)cc2)nc1-c1ccc2c(c1)NC(=O)CO2`, the RP-LC retention time was found to be 954 s.

For the molecule `O=C(NC1CCN(c2cc(-c3cccs3)[nH]n2)C1)c1ccc(F)c(F)c1` (stereo not given), the RP-LC retention time worked out at 752 s.

In turn, `Cc1cc(NS(=O)(=O)c2cn(C(C)C)c3ncccc23)ccc1F` returned an RP-LC retention time of 948 s.

In turn, `COc1cccc(-c2nn3c(COc4ccc(Br)cc4)nnc3s2)c1OC` had an RP-LC retention time of 1130 s.

For the molecule `Cc1cnc(C2CC2)n1C1CCCN(S(=O)(=O)Cc2ccccc2)C1` (stereo not given), the RP-LC retention time was 637 s.

The molecule `CCN(CC)CCNC(=O)CCc1c(-c2ccc(Cl)cc2)nc2ccccn12` displayed an RP-LC retention time of 558 s.

Regarding `COc1ccc(-c2nc(-c3ccc4nnn(C(C)C)c4c3)no2)cc1OC`, the RP-LC retention time was found to be 1020 s.

Molecule `COc1ccccc1N1CCN(c2cc(SCC(=O)Nc3cccc(Cl)c3F)ncn2)CC1` came in with an RP-LC retention time of 1270 s.

The molecule `CCCCn1cc(S(=O)(=O)Nc2ccc(Cl)cc2F)c2cccnc21` showed an RP-LC retention time of 1020 s.

For `COc1ccccc1NC(=O)C1CCN(S(=O)(=O)c2cc(-c3noc(C)n3)cs2)CC1`, the RP-LC retention time was 918 s.

The molecule `CCc1noc(NC(C)=O)c1-c1ccc(OC)c(S(=O)(=O)NCc2cccc(OC)c2)c1` displayed an RP-LC retention time of 786 s.
